Article PMC3693846 (Cellular and molecular neurobiology, 2013)

Test system: L-type voltage-gated calcium channel (subtype not resolved)
Assay type: cell-based

With `CC(C)n1cnc2c(NCCCCCCNC(=O)OC(C)(C)C)nc(NCCO)nc21` [CK59, 2-(2-Hydroxyethylamino)-6-aminohexylcarbamic acid tert-butyl ester-9-isopropylpurine] the “% decrease of current at 50 μM” value was 67.47 % decrease of current at 50 μM.
